Molecules are shown by their SMILES. Activity calls are given as the source filed them. The calls are words filed in the database; no cut-off is given here.

What all share (type): functional
Assay [1] deals with Colletotrichum falcatum. As to the kind of experiment: Antifungal activity against Glomerella tucumanensis assessed as growth inhibition at 1200 ug/ml. As to conditions: read-out: IZ.
In assay [2] the test system is Priestia megaterium. As to the kind of experiment: Antibacterial activity against Bacillus megaterium assessed as growth inhibition at 600 ug/ml by NCCLS […] method. Conditions: read-out: IZ. A general note: Dilution methods test growth across graded concentrations, often in twofold steps.
The test system of assay [3] is Colletotrichum falcatum. Briefly: Antifungal activity against Glomerella tucumanensis assessed as growth inhibition at 600 ug/ml. As to conditions: read-out: IZ.
The subject of assay [4] is Fusarium oxysporum. Briefly: Antifungal activity against Fusarium oxysporum assessed as growth inhibition at 300 ug/ml. As to conditions: read-out: IZ.
In assay [5] the test system is Exserohilum rostratum. As to the kind of experiment: Antifungal activity against Setosphaeria rostrata assessed as growth inhibition at 900 ug/ml. Conditions: read-out: IZ.
For assay [6], the system named is Staphylococcus aureus. Briefly: Antibacterial activity against Staphylococcus aureus assessed as growth inhibition at 900 ug/ml by NCCLS […] method. As to conditions: read-out: IZ.
Assay [7] has as its system Staphylococcus aureus. Briefly: Antibacterial activity against Staphylococcus aureus assessed as growth inhibition at 600 ug/ml by NCCLS […] method. Conditions: read-out: IZ.
For assay [8], the system named is Proteus mirabilis. As to the kind of experiment: Antibacterial activity against Proteus mirabilis assessed as growth inhibition at 600 ug/ml by NCCLS […] method. As to conditions: read-out: IZ.
Assay [9] has as its system Fusarium oxysporum. As to the kind of experiment: Antifungal activity against Fusarium oxysporum assessed as growth inhibition at 600 ug/ml. Conditions: read-out: IZ.
The subject of assay [10] is Fusarium oxysporum. Briefly: Antifungal activity against Fusarium oxysporum assessed as growth inhibition at 900 ug/ml. As to conditions: read-out: IZ.
In assay [11] the test system is Bacillus subtilis. Briefly: Antibacterial activity against Bacillus subtilis assessed as growth inhibition at 600 ug/ml by NCCLS […] method. Conditions: read-out: IZ.
Assay [12] concerns Escherichia coli. As to the kind of experiment: Antibacterial activity against Escherichia coli assessed as growth inhibition at 900 ug/ml by NCCLS […] method. Conditions: read-out: IZ.
The test system of assay [13] is Streptococcus pyogenes. As to the kind of experiment: Antibacterial activity against Streptococcus pyogenes assessed as growth inhibition at 900 ug/ml by NCCLS […] method. Conditions: read-out: IZ.
In assay [14] the test system is Exserohilum rostratum. Briefly: Antifungal activity against Setosphaeria rostrata assessed as growth inhibition at 1200 ug/ml. Conditions: read-out: IZ.
For assay [15], the system named is Candida albicans. As to the kind of experiment: Antifungal activity against Candida albicans assessed as growth inhibition at 300 ug/ml. Conditions: read-out: IZ.
In assay [16] the test system is Candida albicans. As to the kind of experiment: Antifungal activity against Candida albicans assessed as growth inhibition at 1200 ug/ml. As to conditions: read-out: IZ.
In assay [17] the test system is Candida albicans. As to the kind of experiment: Antifungal activity against Candida albicans assessed as growth inhibition at 600 ug/ml. Conditions: read-out: IZ.
Assay [18] deals with Colletotrichum falcatum. Briefly: Antifungal activity against Glomerella tucumanensis assessed as growth inhibition at 900 ug/ml. Conditions: read-out: IZ.
Assay [19] relates to Bacillus pumilus. As to the kind of experiment: Antibacterial activity against Bacillus pumilus assessed as growth inhibition at 600 ug/ml by NCCLS […] method.
Assay [20] concerns Bacillus subtilis. As to the kind of experiment: Antibacterial activity against Bacillus subtilis assessed as growth inhibition at 900 ug/ml by NCCLS […] method. As to conditions: read-out: IZ.
In assay [21] the test system is Proteus mirabilis. As to the kind of experiment: Antibacterial activity against Proteus mirabilis assessed as growth inhibition at 900 ug/ml by NCCLS […] method. As to conditions: read-out: IZ.
Assay [22] concerns Proteus vulgaris. Briefly: Antibacterial activity against Proteus vulgaris assessed as growth inhibition at 900 ug/ml by NCCLS […] method. Conditions: read-out: IZ.
In assay [23] the test system is Exserohilum rostratum. Briefly: Antifungal activity against Setosphaeria rostrata assessed as growth inhibition at 300 ug/ml. As to conditions: read-out: IZ.
In assay [24] the test system is Fusarium oxysporum. As to the kind of experiment: Antifungal activity against Fusarium oxysporum assessed as growth inhibition at 1200 ug/ml. Conditions: read-out: IZ.
The test system of assay [25] is Klebsiella pneumoniae. Briefly: Antibacterial activity against Klebsiella pneumoniae assessed as growth inhibition at 900 ug/ml by NCCLS […] method. Conditions: read-out: IZ.
Assay [26] has as its system Klebsiella aerogenes. As to the kind of experiment: Antibacterial activity against Enterobacter aerogenes assessed as growth inhibition at 900 ug/ml by NCCLS […] method. Conditions: read-out: IZ.
The test system of assay [27] is Proteus vulgaris. As to the kind of experiment: Antibacterial activity against Proteus vulgaris assessed as growth inhibition at 600 ug/ml by NCCLS […] method. As to conditions: read-out: IZ.
Assay [28] has as its system Klebsiella aerogenes. Briefly: Antibacterial activity against Enterobacter aerogenes assessed as growth inhibition at 600 ug/ml by NCCLS […] method. As to conditions: read-out: IZ.
In assay [29] the test system is Exserohilum rostratum. As to the kind of experiment: Antifungal activity against Setosphaeria rostrata assessed as growth inhibition at 600 ug/ml. As to conditions: read-out: IZ.
Assay [30] relates to Klebsiella pneumoniae. As to the kind of experiment: Antibacterial activity against Klebsiella pneumoniae assessed as growth inhibition at 600 ug/ml by NCCLS […] method. Conditions: read-out: IZ.
Assay [31] concerns Bacillus pumilus. Briefly: Antibacterial activity against Bacillus pumilus assessed as growth inhibition at 900 ug/ml by NCCLS […] method.
Assay [32] has as its system Streptococcus pyogenes. Briefly: Antibacterial activity against Streptococcus pyogenes assessed as growth inhibition at 600 ug/ml by NCCLS […] method. Conditions: read-out: IZ.
For assay [33], the system named is Priestia megaterium. Briefly: Antibacterial activity against Bacillus megaterium assessed as growth inhibition at 900 ug/ml by NCCLS […] method. Conditions: read-out: IZ.
The subject of assay [34] is Candida albicans. Briefly: Antifungal activity against Candida albicans assessed as growth inhibition at 900 ug/ml. Conditions: read-out: IZ.
Assay [35] deals with Colletotrichum falcatum. As to the kind of experiment: Antifungal activity against Glomerella tucumanensis assessed as growth inhibition at 300 ug/ml. As to conditions: read-out: IZ.
Assay [36] relates to Escherichia coli. Briefly: Antibacterial activity against Escherichia coli assessed as growth inhibition at 600 ug/ml by NCCLS […] method. As to conditions: read-out: IZ.

For `COc1ccc2c(OCCCN3CCN(Cc4cccnc4)CC3)c(-c3ccccc3)c(=O)oc2c1`, the zone of inhibition at 1200 µg/mL was 27 mm in [1], 23.4 mm in assay [14], 24.6 mm in [16] and 27.9 mm in [24]. In addition, the zone of inhibition at 600 µg/mL is 7.65 mm in assay [2]; 7.76 mm in [3]; 11.6 mm in assay [7]; 11.3 mm in [8]; 8.78 mm in assay [9]; 8.76 mm in [11]. Also, the zone of inhibition at 600 µg/mL in [17] was 6.14 mm; in assay [27] it was 8.76 mm; in [28], 4.22 mm; in [29] it was 6.76 mm; in assay [30], 3.78 mm; in assay [32], 9.12 mm. In addition, the zone of inhibition at 600 µg/mL in assay [36] worked out at 3.87 mm. The zone of inhibition at 300 µg/mL in [4] was determined as 3.47 mm; in assay [15] it was 3.21 mm; in [23] it was 2.9 mm; in [35] it was 4.45 mm. The zone of inhibition at 900 µg/mL in assay [5] amounted to 11.9 mm; in assay [6], 21.4 mm; in assay [10], 18.8 mm; in assay [12], 6.21 mm; in assay [13], 16.8 mm; in [18], 13.2 mm. Besides, the zone of inhibition at 900 µg/mL stood at 15.1 mm in [20]; 21.6 mm in assay [21]; 17.1 mm in assay [22]; 7.93 mm in [25]; 8.56 mm in [26]; 13.4 mm in assay [33]. In [34], the zone of inhibition at 900 µg/mL stood at 13.7 mm. Also, the “growth inhibition (GI)” value in [19] and in [31] was “inactive” throughout.
Consider `CN[C@@H]1[C@H](O[C@H]2[C@H](O[C@H]3[C@H](O)[C@@H](O)[C@H](N=C(N)N)[C@@H](O)[C@@H]3N=C(N)N)O[C@@H](C)[C@]2(O)C=O)O[C@@H](CO)[C@H](O)[C@H]1O` [STREPTOMYCIN], for which the zone of inhibition at 600 µg/mL in [2] turned out to be 6.23 mm; in assay [7], 10.3 mm; in [8], 12.8 mm; in [11], 8.44 mm; in [19] (read-out: IZ), 7.25 mm; in assay [27], 8.9 mm. For the same molecule, the zone of inhibition at 600 µg/mL is 4.47 mm in assay [28], 3.24 mm in assay [30], 8.19 mm in assay [32] and 3.06 mm in assay [36]. Besides, the zone of inhibition at 900 µg/mL in [6] came to 20 mm; in assay [12], 6.14 mm; in [13] it was 16.5 mm; in [20] it was 16.2 mm; in assay [21] it was 20.3 mm; in [22] it was 16.1 mm. Also, the zone of inhibition at 900 µg/mL in assay [25] was found to be 6.54 mm; in assay [26], 8.76 mm; in assay [31] (read-out: IZ), 14.5 mm; in [33] it was 12.8 mm.
As to `CCC(C)n1ncn(-c2ccc(N3CCN(c4ccc(OCC5COC(Cn6cncn6)(c6ccc(Cl)cc6Cl)O5)cc4)CC3)cc2)c1=O` (configuration not stated) [ITRACONAZOLE], the zone of inhibition at 1200 µg/mL in assay [1] worked out at 33.8 mm; in assay [14], 27.4 mm; in assay [16], 23 mm; in assay [24], 34.4 mm. For the same molecule, the zone of inhibition at 600 µg/mL in assay [3] amounted to 9.34 mm; in assay [9], 10.8 mm; in assay [17] it was 5.35 mm; in assay [29], 7.56 mm. In addition, the zone of inhibition at 300 µg/mL in assay [4] stood at 5.46 mm; in [15], 2.67 mm; in [23], 3.56 mm; in assay [35], 4.45 mm. The zone of inhibition at 900 µg/mL was found to be 14.8 mm in [5], 20 mm in assay [10], 18.3 mm in assay [18] and 12 mm in assay [34].

Source of the values: ChEMBL document CHEMBL3045792, “Synthesis, antimicrobial activity, and molecular modeling of novel 4-(3-(4-benzylpiperazin-1-yl)propoxy)-7-methoxy-3-substituted phenyl-2H-chromen-2-one” (2013).
